Assay results published in patent US8410130B2, “Synthesis of 8H-3A-aza-cyclopenta [A ]indenes and 5,10-dihydropyrrolo[1,2-B]isoquinolines derivatives and their use as antitumor therapeutic agents” (Academia Sinica, priority 2007, dated 2013).

Assays:
CCRF-CEM/VBL = test: In vitro cytotoxicity, XTT assay, vinblastine resistant subline; assay type: cell-based, human; conditions: for IC50: Homo sapiens, CCRF-CEM, XTT assay, 72-hr incubation; for fold of cross-resistant, CCRF-CEM/VBL vs IC50 of the parent cell line: numbers in brackets
From the text: (§1) Human colon carcinoma HCT-116 cells, human prostate adenocarcinoma PC-3 and adenocarcinoma SK-OV-3 cells were obtained from American Type Culture Collection (ATCC, Rockville, Md.). Human mammary carcinoma (MX-1) tumor cells were obtained from MSKCC cell bank. The CCRF-CEM human lymphoblastic leukemia cells and their vinblastine resistant subline (CCRF-CEM/VBL, 680-fold resistance in vitro) were obtained from Dr. William Beck of the University of Illinois, Chicago, and CCRF-CEM/Taxol (330-fold resistance in vitro). Resistant cells CCRF-CEM/taxol were produced by exposing the parent cells to increasing sublethal concentration (IC50-IC90) of paclitaxel for six months.
(§2) In preparation for in vitro cytotoxicity assays, cells were cultured at an initial density 2-5×10^4 cells per milliliter. They were maintained in a 5% CO2-humidified atmosphere at 37° C. in RPMI medium 1640 (GIBCO/BRL) containing penicillin (100 units/mL), streptomycin (100 μg/mL, GIBCO/BRL), and 5% heat-inactivated FBS. For cells grown in suspension (such as CCRF-CEM and its sublines), cytotoxicity was measured, by using XTT microculture method in 96-well microtiter plates (Scudiero D A et al., Cancer Res. 1988, 48, 4827-4833). For solid tumor cells growing in a monolayer (such as MX-1 and HCT-116), cytotoxicity of the drug was determined, in duplicate, in 96-well microtiter plates by using the sulforhodamine B method (Skehan P et al., J. Natl. Cancer Inst 1990, 82, 1107-1112). For both methods, the absorbance of each well was measured with a microplate reader (Power Wave XS, Bio-Tek, Winooski, Vt.) after 72-hr incubation as described previously (Chou T-C et al., Proc. Natl. Acad. Sci. USA 2001, 98, 8113-8118). Dose-effect relationship data from 6 to 7 concentrations of each drug, in duplicate, were analyzed by using a computer program (Chou T-C et al., ComboSyn, Inc., Paramus, N J. 2005) based on the median-effect principle and plot (Chou T-C et al., Adv. Enzyme Regul. 1984, 22, 27-55; Chou T-C, Pharmacol. Rev. 2006, 58, 621-681).
(§3) The IC50 is defined by the concentration required to inhibit tumor cell growth by 50%. […] The growth inhibition of the compounds disclosed herein against human lymphoblastic leukemic cells (CCRF-CEM) and its drug-resistant sublines (resistant to vinblastine and taxol, CCRF-CEM/VBL and CCRF-CEM/taxol, respectively) is also shown in Table 5. […] Thus, the compounds disclosed herein are effective against multiple drug resistant tumors.

[1] = test system: Human mammary carcinoma (MX-1) tumor cells; test: In vitro cytotoxicity, sulforhodamine B (SRB) assay; assay type: cell-based; conditions: Homo sapiens, 72-hr incubation
From the text: as §1, §2, §3

[2] = test system: Human colon carcinoma HCT-116 cells; test: as above; assay type: cell-based; conditions: Homo sapiens, HCT-116, 72-hr incubation
From the text: as §1, §2, §3

[3] = test system: CCRF-CEM human lymphoblastic leukemia cells; test: In vitro cytotoxicity, XTT assay, 72-hr incubation; assay type: cell-based; conditions: Homo sapiens, CCRF-CEM
From the text: as §1, §2, §3

[4] = test system: human mammary carcinoma MX-1 xenograft; test: Therapeutic effect in nude mice bearing MX-1 xenograft; assay type: in vivo; conditions: intravenous injection
Procedure: FIGS. 2A-B illustrates the therapeutic effect of DA-1090, 1099, 1124, 1012 and 1107 in nude mice bearing human mammary carcinoma MX-1 xenograft (i.v. inj, n=3-4), average tumor size changes (FIG. 2A) and average body weight changes (FIG. 2B).
(§4) Athymic nude mice bearing the nu/nu gene were obtained from NCI, Frederick, Md. and used for all human tumor xenografts. Male nude mice, 6 weeks or older, weighing 20-24 g or more were used. Compounds were administered via the tail vein for i.v. injection or infusion as described previously (Chou T-C et al., Proc. Natl. Acad. Sci. USA 2001, 98, 8113-8118). Various formulations were prepared for injections into the mice for chemotherapeutic studies. As an example, a drug was dissolved in DSMO to make a 25 mg/ml fresh solution, 0.4 ml of this solution was mixed with 0.3 ml of Tween 80, plus 1.3 ml to make 2 ml of 5 mg/ml solution. Bolus injection volume was 0.1-0.2 ml per mouse.
Athymic nude mice bearing the nu/nu gene were used for human breast tumor MX-1 xenograft (FIGS. 2, 2A and 2B). Nude mice were obtained from National Cancer Institute, Frederick, Md. Male mice, 6 weeks old or older, weighing 22 g or more were used for experiments with subcutaneous tumor inoculation as described previously (Chou T-C, Pharmacol. Rev. 2006, 58, 621-681). Drug was administrated via the tail vein by iv injection. Tumor volumes were assessed by measuring length×width×height (or width) by using caliper. An example of vehicle used was 20 μL DMSO in 180 μL saline. All animal studies were conducted in accordance with the guidelines of the U.S. National Institutes of Health Guide for the Care and Use of Animals and the protocol approved by the Institutional Animal Care and Use Committee.

[5] = test system: ovarian adenocarcinoma SK-OV-3 xenograft; test: Therapeutic effect in nude mice bearing SK-OV-3 xenograft; assay type: in vivo; conditions: intravenous injection, on day 22
Procedure: FIGS. 4A-B illustrates the therapeutic effects of DA-1090, 1099, 1107 in nude mice bearing ovarian adenocarcinoma SK-OV-3 xenograft (i.v. inj., n=3), average tumor size changes (FIG. 4A) and average body weight changes (FIG. 4B).
as §4
(§5) The therapeutic effects of N-mustard DA-1099 against human prostate adenocarcinoma PC-3 s.c. xenograft in nude mice is shown in FIGS. 3, 3A and 3B. xenograft (i.v. inj., n=3), average tumor size changes (FIG. 3A) and average body weight changes (FIG. 3B). […] Under optimal therapeutic conditions, intravenous injection, of DA-1090, 1099, and 1107, 20 (QD×4), 50 (QD×3), and 20 (QD×4) mg/kg, respectively, yielded 53%, 78%, and 71% tumor suppression, respectively, on day 22.

CCRF-CEM/Taxol = test: In vitro cytotoxicity, XTT assay, taxol resistant subline; assay type: cell-based, human; conditions: for IC50: Homo sapiens, CCRF-CEM, XTT assay, 72-hr incubation; for fold of cross-resistant, CCRF-CEM/Taxol vs IC50 of the parent cell line: numbers in brackets
From the text: as §1, §2, §3

[6] = test system: human prostate adenocarcinoma PC-3 xenograft; test: Therapeutic effect in nude mice bearing PC-3 xenograft; assay type: in vivo; conditions: 50 mg/kg, QD×4, i.v. inj.
Procedure: FIGS. 3A-B illustrates the therapeutic effect of DA-1099 in nude mice bearing human prostate adenocarcinoma PC-3 xenograft (i.v. inj., n=3), average tumor size changes (FIG. 3A) and average body weight changes (FIG. 3B).
as §4, §5

[7] = 18 mg/kg, every other two days (Q2D), two times
[8] = 30 mg/kg, every other two days (Q2D), two times

Row | Structure (SMILES) | IC50 (CCRF-CEM/VBL) [nM] | fold of cross-resistant, CCRF-CEM/VBL vs IC50 of the parent cell line (CCRF-CEM/VBL) | IC50 [1] [nM] | IC50 [2] [nM] | IC50 [3] [nM] | antitumor therapeutic effect (tumor size) [4, 7] | toxicity [4, 7] | tumor suppression ([5]; 20 mg/kg (QD×4)) [%] | IC50 (CCRF-CEM/Taxol) [nM] | fold of cross-resistant, CCRF-CEM/Taxol vs IC50 of the parent cell line (CCRF-CEM/Taxol) | antitumor therapeutic effect (tumor size) ([4]; 18 mg/kg, daily (QD) 3 times) | toxicity ([4]; 18 mg/kg, daily (QD) 3 times) | tumor-growth suppression [6] | tumor suppression ([5]; 50 mg/kg (QD×3)) [%] | antitumor therapeutic effect (tumor size) [4, 8] | toxicity [4, 8]
1 | Cc1c(CO)c(CO)c2n1-c1ccccc1C2 [DA-1090, (2-Hydroxymethyl-3-methyl-8H-3a-aza-cyclopenta[a]inden-1-yl)methanol] | 29.7 | [0.39x]^c | 357 | 332 | 76 | tumor total disappearance | low toxicity | 53 | 66.3 | [0.87x] | – | – | – | – | – | –
2 | CCc1c(CO)c(CO)c2n1-c1ccccc1C2 [DA-1099, (3-Ethyl-2-hydroxymethyl-8H-3a-azacyclopenta[a]inden-1-yl)methanol] | 133 | [0.37x] | 1080 | 825 | 356 | – | – | – | 229 | [0.64x] | tumor total disappearance | low toxicity | complete tumor-growth suppression | 78 | – | –
3 | Cc1c(CO)c(CO)c2n1Cc1ccccc1C2 [DA-1107, (2-Hydroxymethyl-3-methyl-5,10-dihydropyrrolo[1,2-b]isoquinolin-1-yl)methanol] | 93 | [1.15x] | 616 | 281 | 81 | – | – | 71 | 98 | [1.21x] | – | – | – | – | tumor total disappearance | low toxicity
